Data: US12263140B1, “Methods of reducing the production of greenhouse gases from animals” (AGRICULTURAL SCIENCES LIMITED, priority 2023, dated 2025)

Tested on: sheep
Assay: Sheep exhalant breath trial after vitamin K1 drench (Douglas Bag type apparatus, Micro GC)
Type: in vivo
Description: The sheep tested in this trial were ewe sheep. In this and all subsequent sheep trials, the sheep were yarded for 24 hours before the trial commenced, so their rumen was at least partially empty since they could not eat when yarded. In total, 60 sheep were tested in similar trials on two different sheep farms. The sheep in each trial were divided randomly into two equal groups, one group being an experimental group and the other group being a control group.
The sheep were driven into a race and each individual was drenched as they came to the end of the race. Sheep in the experimental group and control group were given a 50 ml drench prior to yard release and normal grazing and behaviour.
The sheep were let out to feed in a field and allowed to graze on grass freely. They were herded back at intervals and their exhalant breath captured. The breath exhalation of sheep was measured using the apparatus shown in FIG. 4, according to one or more embodiments, being an instrument based on Douglas Bag equipment for the sampling of exhalant breath from humans. Note that the air space in the tubes shown in FIG. 4 is exaggerated in the drawing, according to one or more embodiments. In reality, the air space may be kept to as small a volume as possible to avoid contamination of the exhalant breath with the dead air in the tubes. The gas impermeable bag used for exhalant breath capture must be as big as possible since methane is largely released periodically as a burp rather than in the exhalant breath.
The apparatus of FIG. 4 was designed specifically for use on sheep, according to one or more embodiments. On inspiration by the sheep, the valve opens and the sheep is able to breath in fresh air. On exhalation by the sheep, the valve closes and the exhaled air is directed in to the gas impermeable balloon. It is important that the balloon used is not expanded by the exhaled air, but is merely collected. Otherwise, back pressure may develop which has the potential to interfere with the breathing of the sheep. The valve could be either a flap valve or a table tennis ball. The latter was identified by the inventor as an ideal light weight valve.
The breath exhalant collected was analysed using an Agilent Micro GC with 2 dual columns: molecular sieve 5A and Plot-Q columns.
The six control sheep were drenched with 50 ml of 30% ethyl alcohol plus 50 ml water.
In this trial, the same trial was completed as in Example 3 above however, in this trial male sheep (rams) were trialed and the exhalant breath of the trial animals was tested over a time period of two days, samples taken on day 0, 1 and 2. Five rams were drenched with vitamin K1 and four rams were not drenched at all and used as controls.

CC1=C(C/C=C(\C)CCC[C@H](C)CCC[C@H](C)CCCC(C)C)C(=O)c2ccccc2C1=O [vitamin K1]
emitted methane in exhalant breath (ewes drenched with tincture plus water, versus control sheep): significant reduction
ill effects after dosing (ewes, drench): did not show any ill effects
percentage decrease in methane production compared to control sheep (rams, drench, day 2): 71%
amount of emitted gasses, carbon dioxide and methane (treated versus control sheep): marked lessening
